What was measured:
cerebellar explants = assay: Cerebellar explants, glutamate/3-nitropropionic acid neurotoxicity; assay type: cell-based, Wistar rats
Experimental: Cover slips were placed into a large Petri dish and washed in 70% alcohol for 5 minutes, then washed with Millipore H2O. The cover slips were air dried, and coated with Poly-D-Lysine (1 mg/ml stock solution in PBS, 90-100 μl) for 2 hours at 34° C.
Postnatal day 8 Wistar rats were used for the study. The rats were sacrificed and placed in ice for 1 minute, decapitated and the cerebellum removed and placed on ice. Cerebellum tissue was placed in 1 ml of 0.65% glucose-supplemented PBS (10 μl 65% stock D (+)glucose/1 ml PBS) in a large Petri dish, chopped up into smaller sections and triturated with a 1 ml insulin syringe via a 23 G (0.4 mm) needle, and then squirted back into the glucose solution in the large Petri dish. The tissue was sieved through (125 μm pore size gauze) and centrifuged (2 minutes at 60 g) twice to exchange the medium into serum-free BSA-supplemented START V medium (Biochrom, Germany). The second centrifugation step was done with 1 ml of START V medium. The microexplants were reconstituted into 500 μl of START V medium and put on ice.
Two hours after PDL-coating, the slides were washed with Millipore H2O and air dried. Each slide was placed into a small Petri dish (diameter: 35 mm) and 40 μl of START V/cell suspension was added. The tissue was incubated for 2 hours at 34° C. (settlement period). START V-medium (1 ml) was then added to the Petri dish and cultivated at 34° C. in the presence of 5% CO2 in air at 100% humidity for 48 hours.
For the study, certain explant cultures were exposed to vehicle (PBS) only. In the first study (Study 1) 10 μl of toxin 1 (L-glutamate—100 mM in Millipore water; final concentration; 1 mM) and 10 μl of toxin 2 (3-nitropropionic acid—50 mM—pH 7—in Millipore water, final concentration: 0.5 mM) was applied simultaneously with the drug to be tested ([…]). In each case, the drugs were left in contact with the explants for the duration of the study.
After explants were exposed to drugs for the study period, cells were then rinsed in PBS and then fixed in increasing concentrations of paraformaldehyde (500 μl of 0.4% PFA was applied; then 1.2% PFA; then 3% PFA and finally 4% PFA (each fixation step: 2-3 minutes). Finally, the microexplants were rinsed in PBS.
Neurons in the explants were then evaluated for morphology (presence of neurites) and counted as live cells per microscopic field. Four fields displaying highest cell density were counted per cover slip and the data presented as mean±standard error of the mean (SEM); n=4 each. Statistical significance was evaluated by using the non-paired Student's t-test.

[1] = test system: animals with scopolamine-induced memory impairment; assay: Morris Water Maze (MWM) test with scopolamine-induced memory impairment; assay type: in vivo, Wistar rats; details: scopolamine 0.3 mg/kg i.p.; day 4 of acquisition
Excerpt: The first part of the study involved acute testing of cG-2-AllylP in the Morris Water Maze Memory (MWM) model. The MWM test is one of the most frequently used tests for assessing spatial memory in rats and is well recognized to accurately predict effects of disease and treatment on spatial memory generally. Therefore, the MWM test reflects effects of disease and treatment in human subjects. The standard procedure for MWM was followed. We used a circular swimming pool (80 cm depth×150 cm diameter) filled with opaque water, with the temperature maintained at 20° C. […] On days 1-4 of the experiment rats underwent memory acquisition trials with 6 trials (60 seconds each) in each day of testing (habituation phase). Latency to reach the platform was recorded and the daily reduction of average latency was used to measure the capability to learn where the hidden platform was. […] Experimental groups are detailed in the Table 4 below. On […], the probe MWM test was performed with the platform removed. There were 6 trials, each of maximum duration of 60s, at least 3 min rest between trials). […] Data was collected and analysed using Any-maze (v4.2) software. The data generated from behavioural tests was analysed using one-way ANOVA for determining the difference between the aged-groups. […]

Question: For C[C@@]12CCCN1C(=O)C1(CCCC1)NC2=O [Cyclic cyclopentyl-G-2MeP, (8aS)-Methyl-spiro[cyclopentane-1,3(4H)-tetrahydropyrrolo[1,2-a]pyrazine]-1,4(2H)-dione], which “numbers of cells having neurites” value (cerebellar explants; administered simultaneously with glutamate) is on record?
Answer: The value was “significantly increased the number of cells having neurites”.

Question: And the glutamate-induced neurotoxicity (cerebellar explants; low doses (cG-2-AllylP: 100 pm to 10 nm))?
Answer: Its glutamate-induced neurotoxicity is “significant decrease in glutamate-induced neurotoxicity”.

Question: Which “loss of cerebellar neurons having neurites” value (cerebellar explants; glutamate 1 mM vs vehicle-treated controls) does the source give for N[C@@H](CCC(=O)O)C(=O)O [Glutamate, L-glutamate, reference compound] here?
Answer: Its value is roughly 85%.

Question: Which time to platform [1] does the source give for CN1[C@@H]2C[C@@H](OC(=O)[C@H](CO)c3ccccc3)C[C@H]1[C@@H]1O[C@@H]12 [scopolamine, reference compound] here?
Answer: Its time to platform is “approximately 208 % of control”.
